The values below come from PubChem BioAssay (NCI).

Some test systems named below: HOP-62 NSCLC; IGROV1 ovarian; K-562 leukemia; KM12 colon; M14 melanoma; NCI-H522 lung; OVCAR-4 ovarian; SK-MEL-2 melanoma; SNB-19 CNS; UACC-62 melanoma.
Common to all, as to assay: NCI anticancer screen, dose series, 48 h

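Growth conditions: 96-well plates. Treatment: test compound, 48 hours, 5 concentrations. Analysis: linear interpolation between bracketing concentrations; unreached endpoints set to highest concentration. TGI denotes the concentration required for complete inhibition of growth.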

Regarding `Nc1nccc(-c2c[nH]c3cc(Br)ccc23)n1`, the TGI was > 100 µM with HOP-62 NSCLC; > 100 µM in the assay on IGROV1 ovarian; > 100 µM with K-562 leukemia; 80.9 µM in the assay on KM12 colon; 43.9 µM in the assay on M14 melanoma; 38.4 µM with NCI-H522 lung. Also, the TGI was > 100 µM with OVCAR-4 ovarian, 47.2 µM with SK-MEL-2 melanoma, 47.5 µM in the assay with SNB-19 CNS and 47.6 µM in the assay with UACC-62 melanoma.

Consider `Cc1ccnc(NS(=O)(=O)c2ccc(N=[N+]=[N-])cc2)n1`, for which the TGI in the assay with HOP-62 NSCLC, in the assay on IGROV1 ovarian, in the assay on K-562 leukemia, in the assay on KM12 colon, in the assay with M14 melanoma and in the assay on NCI-H522 lung was > 100 µM throughout. Moreover, the TGI with OVCAR-4 ovarian, in the assay on SK-MEL-2 melanoma, in the assay on SNB-19 CNS and in the assay with UACC-62 melanoma was > 100 µM each time.

For `Cc1cc(-c2nc3ccc(F)cc3s2)ccc1NC(=O)[C@H](C)N`, the TGI stood at 24.5 µM with HOP-62 NSCLC; 20 µM with IGROV1 ovarian; 4.7 µM with K-562 leukemia; 15.3 µM in the assay with KM12 colon; 3.94 µM in the assay with M14 melanoma; 20.7 µM in the assay on NCI-H522 lung. The TGI was 24.4 µM with OVCAR-4 ovarian, 25.2 µM in the assay with SK-MEL-2 melanoma, 29.6 µM in the assay with SNB-19 CNS and 3.6 µM with UACC-62 melanoma.

Take `C[C@]12CCC3C4=C(CCC3C1CCC2=O)C(=O)[C@H]1O[C@H]1C4=O` (stereo not given in full): the TGI in the assay with HOP-62 NSCLC was 12.8 µM; in the assay with IGROV1 ovarian it was 4.74 µM; in the assay with K-562 leukemia, 6.87 µM; in the assay with KM12 colon, 18.3 µM; with M14 melanoma, 10.2 µM; in the assay on NCI-H522 lung, 3.36 µM. In addition, the TGI in the assay on OVCAR-4 ovarian was found to be 7.96 µM; with SK-MEL-2 melanoma, 26.5 µM; in the assay with SNB-19 CNS it was 30 µM; in the assay with UACC-62 melanoma, 9.34 µM.

Take `COC(=O)C1=C(C(=O)OC)SC(=C2SCSC3=C2SC(C(=O)OC)=C(C(=O)OC)C32SC3=C(CCCC3)S2)S1`: the TGI in the assay with HOP-62 NSCLC, in the assay on IGROV1 ovarian, in the assay on K-562 leukemia, with KM12 colon, in the assay with M14 melanoma and in the assay on NCI-H522 lung was > 100 µM each time. Also, the TGI with OVCAR-4 ovarian, with SK-MEL-2 melanoma, in the assay with SNB-19 CNS and in the assay on UACC-62 melanoma was > 100 µM in each case.

`CCOC(=O)c1c(CN2CCCC2)n(-c2ccccc2)c2cc(Br)c(O)cc12`: the TGI in the assay on HOP-62 NSCLC came out at 26.7 µM; in the assay with IGROV1 ovarian, 33.5 µM; with K-562 leukemia it was 41.2 µM; in the assay with KM12 colon, 32.2 µM; with M14 melanoma, 29 µM; with NCI-H522 lung, 36.3 µM. For the same compound, the TGI came out at 31.6 µM in the assay with OVCAR-4 ovarian, 33.3 µM in the assay on SK-MEL-2 melanoma, 33.3 µM in the assay on SNB-19 CNS and 31.1 µM in the assay on UACC-62 melanoma.

For the compound `O=C(/C=C/c1ccccc1)C[C@@H](O)C[C@@H]1CC=CC(=O)O1`, the TGI turned out to be 33.7 µM in the assay with HOP-62 NSCLC; 31.2 µM in the assay with IGROV1 ovarian; 7 µM in the assay with K-562 leukemia; 16.5 µM in the assay on KM12 colon; 23.5 µM in the assay on M14 melanoma; 6.9 µM in the assay with NCI-H522 lung. Further, the TGI was determined as 45.7 µM with OVCAR-4 ovarian, 33.9 µM with SK-MEL-2 melanoma, 35.7 µM with SNB-19 CNS and 14.5 µM in the assay on UACC-62 melanoma.

For the compound `CC(=O)c1c2c(c3ccccc3c1O)O[C@@H]1OCC[C@H]21`, the TGI with HOP-62 NSCLC, in the assay on IGROV1 ovarian, in the assay with K-562 leukemia, in the assay on KM12 colon, in the assay with M14 melanoma and in the assay on NCI-H522 lung was > 100 µM in each case. Moreover, the TGI with OVCAR-4 ovarian, in the assay on SK-MEL-2 melanoma, in the assay on SNB-19 CNS and in the assay with UACC-62 melanoma was > 100 µM in each case.

Turning to `O=[N+]([O-])c1cc(C=NC23CC4CC(CC(C4)C2)C3)ccc1Cl`, the TGI in the assay with HOP-62 NSCLC was 17.7 µM; with IGROV1 ovarian it was 47.5 µM; in the assay on K-562 leukemia, > 43.6 µM; in the assay on KM12 colon, 55 µM; in the assay on M14 melanoma it was 26.1 µM; in the assay on NCI-H522 lung, 32.7 µM. The TGI was 36.3 µM with OVCAR-4 ovarian, > 100 µM with SK-MEL-2 melanoma, > 58.5 µM in the assay with SNB-19 CNS and 20.9 µM in the assay on UACC-62 melanoma.

Take `CC1CN(C)c2ccccc2N=C1NN` (stereo not given): the TGI in the assay on HOP-62 NSCLC, with IGROV1 ovarian, in the assay with K-562 leukemia, with KM12 colon, in the assay with M14 melanoma and in the assay with NCI-H522 lung was > 100 µM each time. Also, the TGI with OVCAR-4 ovarian, in the assay with SK-MEL-2 melanoma, in the assay with SNB-19 CNS and in the assay on UACC-62 melanoma was > 100 µM throughout.

For the compound `N#CC(Cc1ccccc1)N(CCC1=CCCCC1)C(c1ccccc1)c1ccccc1` (stereo not given), the TGI with HOP-62 NSCLC is > 100 µM; in the assay on IGROV1 ovarian, > 100 µM; in the assay with K-562 leukemia, > 100 µM; in the assay on KM12 colon, > 100 µM; in the assay on M14 melanoma, > 100 µM; in the assay with NCI-H522 lung, 65.9 µM. In addition, the TGI in the assay on OVCAR-4 ovarian, with SK-MEL-2 melanoma, in the assay with SNB-19 CNS and with UACC-62 melanoma was > 100 µM each time.

In the case of `C/C(=C\CBr)CCC(Br)C(C)(C)Br` (stereo not given), the TGI in the assay on HOP-62 NSCLC, in the assay with IGROV1 ovarian, with K-562 leukemia, in the assay with KM12 colon, in the assay with M14 melanoma and in the assay with NCI-H522 lung was > 100 µM each time. Moreover, the TGI in the assay on OVCAR-4 ovarian, with SK-MEL-2 melanoma, with SNB-19 CNS and in the assay on UACC-62 melanoma was > 100 µM in each case.

As for `CCN(CC)C(=S)N/N=C/c1cc([N+](=O)[O-])ccc1O`, the TGI in the assay with HOP-62 NSCLC is > 100 µM; in the assay on IGROV1 ovarian, 16.7 µM; in the assay with K-562 leukemia, 18.1 µM; in the assay with KM12 colon it was > 100 µM; with M14 melanoma, 29.1 µM; with NCI-H522 lung, 17.6 µM. Moreover, the TGI came to 19.1 µM in the assay with OVCAR-4 ovarian, 65.6 µM in the assay with SK-MEL-2 melanoma, 73 µM with SNB-19 CNS and 15.4 µM in the assay with UACC-62 melanoma.

For `Oc1ccccc1CNCc1nc2ccccc2[nH]1`, the TGI in the assay with HOP-62 NSCLC, with IGROV1 ovarian, in the assay on K-562 leukemia, with KM12 colon, in the assay with M14 melanoma and in the assay on NCI-H522 lung was > 100 µM throughout. For the same compound, the TGI in the assay with OVCAR-4 ovarian, in the assay on SK-MEL-2 melanoma, in the assay on SNB-19 CNS and in the assay on UACC-62 melanoma was > 100 µM in each case.
